# Source: US9113629B2, “4-amino-6-(4-substituted-phenyl)-picolinates and 6-amino-2-(4-substituted-phenyl)-pyrimidine-4-carboxylates and their use as herbicides” (DOW AGROSCIENCES LLC, priority 2013, dated 2015)
# Like-named read-outs stand apart in the source and are kept apart here.
# How the values were obtained:
# [1] = tested on: Key Grass and Sedge Weeds as well as Grass Crops; test: Post-emergent Test II herbicidal activity (Table 6); format: in vivo; conditions: post-emergence, 336 h; for pest or weed control at 70 g/ha: application rate 70 g ai/ha; for pest or weed control at 140 g/ha: application rate 140 g ai/ha
# Outline: (§1)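 Visual injury ratings (0 = no injury, 100 = complete kill) were taken 14 d after treatment, relative to untreated plants. Seedlings at the first–second true leaf stage received overhead spray at 187 L/ha; the highest rate was serially diluted to ½×, ¼×, ⅛× and 1/16×.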
# [2] = tested on: Key Broadleaf Weed and Crop Species; test: Post-emergent Test II herbicidal activity (Table 5); format: in vivo; conditions: post-emergence, 336 h, post-emergent, 14 days after application; for pest or weed control at 70 g/ha: 70 g ai/ha; for pest or weed control at 140 g/ha: 140 g ai/ha
# Outline: as §1
# [3] = CYPES: yellow nutsedge (Cyperus esculentus), read-out: Visual Growth Reduction (%) 14 Days After Application, CYPES
# [4] = DIGSA: crabgrass (Digitaria sanguinalis), read-out: Visual Growth Reduction (%) 14 Days After Application, DIGSA
# [5] = ECHCG: barnyardgrass (Echinochloa crus-galli), read-out: Visual Growth Reduction (%) 14 Days After Application, ECHCG
# [6] = ORYSA: rice (Oryza sativa), read-out: Visual Growth Reduction (%) 14 Days After Application, ORYSA
# [7] = SETFA: giant foxtail (Setaria faberi), read-out: Visual Growth Reduction (%) 14 Days After Application, SETFA
# [8] = SORVU: grain sorghum (Sorghum vulgare), read-out: Visual Growth Reduction (%) 14 Days After Application, SORVU
# [9] = TRZSS (wheat, Triticum aestivum), read-out: Visual Growth Reduction (%) 14 Days After Application, TRZSS
# [10] = ZEAMX: maize, corn (Zea mays), read-out: Visual Growth Reduction (%) 14 Days After Application, ZEAMX
# [11] = ABUTH: velvetleaf (Abutilon theophrasti), read-out: Visual Growth Reduction (%) 14 Days After Application ABUTH
# [12] = AMARE: redroot pigweed (Amaranthus retroflexus), read-out: Visual Growth Reduction (%) 14 Days After Application AMARE
# [13] = BRSNN: oilseed-rape, canola (Brassica napus), read-out: Visual Growth Reduction (%) 14 Days After Application BRSNN
# [14] = CHEAL: lambsquarters (Chenopodium album), read-out: Visual Growth Reduction (%) 14 Days After Application CHEAL
# [15] = EPHHL: wild poinsettia (Euphorbia heterophylla), read-out: Visual Growth Reduction (%) 14 Days After Application EPHHL
# [16] = HELAN: sunflower (Helianthus annuus), read-out: Visual Growth Reduction (%) 14 Days After Application HELAN
# [17] = VIOTR: wild pansy (Viola tricolor), read-out: Visual Growth Reduction (%) 14 Days After Application VIOTR
SMILES,melting point [°C],"pest or weed control at 70 g/ha [1, 3] [%]","pest or weed control at 140 g/ha [1, 3] [%]","pest or weed control at 70 g/ha [1, 4] [%]","pest or weed control at 140 g/ha [1, 4] [%]","pest or weed control at 70 g/ha [1, 5] [%]","pest or weed control at 140 g/ha [1, 5] [%]","pest or weed control at 70 g/ha [1, 6] [%]","pest or weed control at 140 g/ha [1, 6] [%]","pest or weed control at 70 g/ha [1, 7] [%]","pest or weed control at 140 g/ha [1, 7] [%]","pest or weed control at 70 g/ha [1, 8] [%]","pest or weed control at 140 g/ha [1, 8] [%]","pest or weed control at 70 g/ha [1, 9] [%]","pest or weed control at 140 g/ha [1, 9] [%]","pest or weed control at 70 g/ha [1, 10] [%]","pest or weed control at 140 g/ha [1, 10] [%]","pest or weed control at 70 g/ha [2, 11] [%]","pest or weed control at 140 g/ha [2, 11] [%]","pest or weed control at 70 g/ha [2, 12] [%]",also measured
COC(=O)c1nc(-c2cc(F)c(C(F)(F)F)cc2F)c(F)c(N)c1Cl [Compound 144],124 to 126,85 to 94,95 to 100,60 to 74,75 to 84,45 to 59,75 to 84,0 to 29,0 to 29,60 to 74,75 to 84,75 to 84,85 to 94,60 to 74,75 to 84,60 to 74,75 to 84,85 to 94,95 to 100,95 to 100,"pest or weed control at 140 g/ha [2, 12]: 95 to 100%; pest or weed control at 70 g/ha [2, 13]: 85 to 94%; pest or weed control at 140 g/ha [2, 13]: 95 to 100%; pest or weed control at 70 g/ha [2, 14]: 85 to 94%; pest or weed control at 140 g/ha [2, 14]: 95 to 100%; pest or weed control at 70 g/ha [2, 15]: 75 to 84%; pest or weed control at 140 g/ha [2, 15]: 85 to 94%; pest or weed control at 70 g/ha [2, 16]: 85 to 94%; pest or weed control at 140 g/ha [2, 16]: 95 to 100%; pest or weed control at 70 g/ha [2, 17]: 75 to 84%; pest or weed control at 140 g/ha [2, 17]: 85 to 94%"
"COC(=O)c1nc(-c2cc(F)c(C(F)(F)F)cc2F)nc(N)c1OC [Compound 148, methyl 6-amino-2-(2,5-difluoro-4-(trifluoromethyl)phenyl)-5-methoxypyrimidine-4-carboxylate]",96 to 98,60 to 74,75 to 84,0 to 29,0 to 29,0 to 29,0 to 29,0 to 29,30 to 44,0 to 29,0 to 29,0 to 29,0 to 29,30 to 44,60 to 74,0 to 29,30 to 44,75 to 84,75 to 84,0 to 29,"pest or weed control at 140 g/ha [2, 12]: 0 to 29%; pest or weed control at 70 g/ha [2, 13]: 45 to 59%; pest or weed control at 140 g/ha [2, 13]: 60 to 74%; pest or weed control at 70 g/ha [2, 14]: 85 to 94%; pest or weed control at 140 g/ha [2, 14]: 95 to 100%; pest or weed control at 70 g/ha [2, 15]: 85 to 94%; pest or weed control at 140 g/ha [2, 15]: 75 to 84%; pest or weed control at 70 g/ha [2, 16]: 45 to 59%; pest or weed control at 140 g/ha [2, 16]: 60 to 74%; pest or weed control at 70 g/ha [2, 17]: 45 to 59%; pest or weed control at 140 g/ha [2, 17]: 60 to 74%"
